Read-outs that look alike come from different tables or passages of the source.
Legend:
Jurkat = Jurkat (proliferation, CellTiter-Glo); type: cell-based; details: read-out: Calculated IC50, Jurkat
CDK5/p25 = CDK5/p25 (Homo sapiens (Human), UniProt Q00535); assay: Life Technologies Z'-Lyte kinase assay, CDK5/p25; type: biochemical; details: read-out: Calculated IC50, CDK5/p25
BCL-XL = assay: Immunoblot of BCL-2 family proteins in Loucy cells; type: cell-based; details: 12 to 48 hours
Description: (§1) At indicated time points, cellular lysates were harvested at the indicated times points and immunoblotted for the indicated proteins. […] Anti-proliferative effects were determined using cell titer glo analysis. […] Anti-proliferative effects were determined using alamarBlue® analysis. […] Anti-proliferative effects were determined using cell titer glo analysis. […] Dose: i.v. 1 mg/kg and p.o. 10 mg/kg.
(§2) Consistent with its covalent inhibitory mechanism, similar results were seen over the same time span following washout (FIGS. 6A to 6B).

MCL-1 protein = assay: Immunoblot of BCL-2 family proteins in Loucy cells; type: cell-based; details: after 12 hours
Description: as §1, §2

RD-ES = assay: Proliferation assay, CellTiter-Glo, 72 hour; type: cell-based; details: Ewing's sarcoma cell line, read-out: Inhibition of proliferation, RD-ES
Hs863T = assay: Proliferation assay, CellTiter-Glo, 72 hour; type: cell-based; details: Ewing's sarcoma cell line, read-out: Inhibition of proliferation, Hs863T
T47D = assay: Proliferation assay, CellTiter-Glo, 72 hour; type: cell-based; details: breast cancer cell line, read-out: Inhibition of proliferation, T47D
[1] = target: CDK7 (recombinant CAK complex) (Homo sapiens (Human), UniProt P50613); assay: In vitro kinase assay with recombinant CAK complex, with and without pre-incubation; type: biochemical; details: 25 μM ATP, 45 minutes at 30° C.
Description: Cellular lysates were then probed with antibodies recognizing the Ser-2, Ser-5, and Ser-7 CTD phosphoepitopes. […] At each time point cells were lysed, and the cellular lysates were probed using antibodies as described herein. […] Cells were allowed to grow in medium without inhibitor for 0 to 6 hours. At each time point cells were lysed, and the cellular lysates were probed using antibodies as described herein. […] The kinase reaction was then allowed to proceed for 45 minutes at 30° C.
In vitro kinase assays with immunoprecipitated proteins (or recombinant CAK complexes) were performed as follows. Kinase reactions were performed in 25 μL of final volume of reaction buffer (50 mM Hepes, pH 7.5, 150 mM NaCl, 10 mM MgCl2, 5% glycerol, 25 μM ATP, and 10 μCi of [γ-32P]ATP). Each reaction contained 1 μg of RNAP II. Incubation was at 30° C. for 30-45 min. Reactions were terminated by addition of 5 μL of 5×SDS-PAGE sample buffer and incubated at 95° C. for 5 min. Reactions were analyzed by SDS-PAGE, and the dried gel was exposed to film or PhosphorImager plate.
Covalent kinase inhibitors have several characteristics that functionally differentiate themselves from their reversible counterparts. […] Washout of compound I-23R, following a 4-hour administration led to the recovery of RNAP II CTD phosphorylation within 1 hour (FIG. 2C). […]

IRAK1 = IRAK1 (Homo sapiens (Human), UniProt P51617); assay: Life Technologies Adapta kinase assay, IRAK1; type: biochemical; details: read-out: Calculated IC50, IRAK1
[2] = tested on: patient-derived chronic lymphocytic leukemia (CLL) isolates; assay: Cell death of patient-derived CLL isolates, Annexin V staining, 24 hour; type: cell-based, human; details: read-out: Pro-death signaling, average EC50 values
Description: Clinical isolates of CLL were cultured with compounds of Formula (I) or flavopiridol and assessed for cell death after a 24 hour time course by Annexin V staining. […] Anti-proliferative effect was measured using cell titer glo analysis.
PBMCs freshly isolated from peripheral blood are seeded in 24 well plates at a volume of 0.5 ml and a concentration of 2×10^6 cells/ml. Compounds and controls are added to respective wells in a total volume of 2.5 μl. Plates are mixed gently and incubated approximately 24 hours at 37° C., 5% CO2. Apoptosis was measured in all cells from each well using the Annexin V: FITC Apoptosis Detection Kit I (BD Biosciences). Normalized % death was calculated as follows: [(% Dead Drug−% Dead DMSO)/(100%−% Dead DMSO)]×100

SK-ES = assay: Proliferation assay, CellTiter-Glo, 72 hour; type: cell-based; details: Ewing's sarcoma cell line, read-out: Inhibition of proliferation, SK-ES
[3] = tested on: RNAP II CTD phosphorylation; assay: RNAP II CTD phosphorylation immunoblot in Loucy cells (dose response, time course, washout); type: cell-based; details: for IC50: 4 hours
Description: Following the treatment, the cells were washed 2-fold with PBS. Fresh medium containing no inhibitors were added back to the cells. The cells were lysed at indicated time points, and the lysates were probed for RNAP II CTD phosphorylation.
CDK7 exerts its regulatory control of transcription largely by phosphorylating RNAP II CTD, which promotes active transcription. […] Reduction of Ser-5 phosphorylation was seen only at higher concentrations.
Covalent kinase inhibitors have several characteristics that functionally differentiate themselves from their reversible counterparts. […] Washout of compound I-23R, following a 4-hour administration led to the recovery of RNAP II CTD phosphorylation within 1 hour (FIG. 2C). […] This phenomenon was also visible using in vitro kinase reactions comparing pre-incubation of compound I-23 with compound I-23 introduced concurrently with ATP.

[4] = tested on: Jurkat and Loucy leukemia cell lines; assay: Anti-proliferative effect, cell titer glo, 72 hours; type: cell-based
Description: Precipitated proteins were washed and probed for CDK7.
Proliferation assays were conducted over a 48-72 hour time period (as noted). […] Cancer cell line profiling was performed over a 72 time period using Alamar Blue reagent.
The phenylamino-pyrimidine (PAP) core scaffold is a “privileged” ATP-site directed pharmacophore with the most famous example being imatinib, a Bcr-Abl inhibitor approved to treat several cancers including Chronic Myelogenous Leukemia. Numerous PAP derivatives have been reported as potent inhibitors of various CDKs; however, efforts to achieve greater selectivity amongst the CDK family members have been hindered by the high sequence and structural similarity of CDKs. […] In an effort to explore broadly which CDKs might be targetable by a covalent inhibitor, a library of acrylamide-modified PAPs was built, and the library was subject to cell proliferation as well broad kinase selectivity profiling using the Kinativ chemical proteomics approach.

RS4-11 = assay: Proliferation assay, CellTiter-Glo, 72 hour; type: cell-based; details: blood cancer cell line, read-out: Inhibition of proliferation, RS4-11
MDA-MB231 = assay: Proliferation assay, CellTiter-Glo, 72 hour; type: cell-based; details: breast cancer cell line, read-out: Inhibition of proliferation, MDA-MB231
THP-1 = assay: Proliferation assay, CellTiter-Glo, 72 hour; type: cell-based; details: blood cancer cell line, read-out: Inhibition of proliferation, THP-1
SAOS = assay: Proliferation assay, CellTiter-Glo, 72 hour; type: cell-based; details: osteosarcoma cell line, read-out: Inhibition of proliferation, SAOS

CDK7 (recombinant CAK complex), sequence (P50613 whole entry): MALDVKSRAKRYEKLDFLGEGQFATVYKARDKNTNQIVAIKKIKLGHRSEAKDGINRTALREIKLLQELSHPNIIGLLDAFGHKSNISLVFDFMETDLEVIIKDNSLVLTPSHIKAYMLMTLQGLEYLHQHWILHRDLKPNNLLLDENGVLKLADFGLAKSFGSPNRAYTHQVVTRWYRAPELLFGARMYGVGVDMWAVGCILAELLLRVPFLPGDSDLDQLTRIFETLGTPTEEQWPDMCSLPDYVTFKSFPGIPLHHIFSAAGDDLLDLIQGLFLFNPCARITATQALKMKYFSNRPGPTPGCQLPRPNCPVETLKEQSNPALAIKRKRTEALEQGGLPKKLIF
CDK7 (recombinant CAK complex), sequence (P51946 whole entry partner): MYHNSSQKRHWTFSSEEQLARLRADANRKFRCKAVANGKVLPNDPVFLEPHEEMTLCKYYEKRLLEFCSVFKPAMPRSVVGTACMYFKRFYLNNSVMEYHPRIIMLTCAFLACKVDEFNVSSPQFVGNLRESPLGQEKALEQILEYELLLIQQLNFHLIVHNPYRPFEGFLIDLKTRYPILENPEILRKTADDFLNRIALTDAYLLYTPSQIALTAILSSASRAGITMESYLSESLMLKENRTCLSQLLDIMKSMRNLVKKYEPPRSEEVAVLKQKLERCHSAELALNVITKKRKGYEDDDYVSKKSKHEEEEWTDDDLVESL
CDK7 (recombinant CAK complex), sequence (P51948 whole entry partner): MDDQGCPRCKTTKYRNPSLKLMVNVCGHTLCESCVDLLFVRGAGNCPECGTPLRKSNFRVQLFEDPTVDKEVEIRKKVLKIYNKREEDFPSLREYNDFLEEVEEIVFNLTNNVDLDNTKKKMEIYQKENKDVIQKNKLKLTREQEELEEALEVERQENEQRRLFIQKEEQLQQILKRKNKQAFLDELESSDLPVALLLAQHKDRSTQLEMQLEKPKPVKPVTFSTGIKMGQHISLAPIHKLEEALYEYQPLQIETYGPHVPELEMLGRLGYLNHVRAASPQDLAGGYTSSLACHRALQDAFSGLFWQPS
IRAK1, sequence (P51617 whole entry): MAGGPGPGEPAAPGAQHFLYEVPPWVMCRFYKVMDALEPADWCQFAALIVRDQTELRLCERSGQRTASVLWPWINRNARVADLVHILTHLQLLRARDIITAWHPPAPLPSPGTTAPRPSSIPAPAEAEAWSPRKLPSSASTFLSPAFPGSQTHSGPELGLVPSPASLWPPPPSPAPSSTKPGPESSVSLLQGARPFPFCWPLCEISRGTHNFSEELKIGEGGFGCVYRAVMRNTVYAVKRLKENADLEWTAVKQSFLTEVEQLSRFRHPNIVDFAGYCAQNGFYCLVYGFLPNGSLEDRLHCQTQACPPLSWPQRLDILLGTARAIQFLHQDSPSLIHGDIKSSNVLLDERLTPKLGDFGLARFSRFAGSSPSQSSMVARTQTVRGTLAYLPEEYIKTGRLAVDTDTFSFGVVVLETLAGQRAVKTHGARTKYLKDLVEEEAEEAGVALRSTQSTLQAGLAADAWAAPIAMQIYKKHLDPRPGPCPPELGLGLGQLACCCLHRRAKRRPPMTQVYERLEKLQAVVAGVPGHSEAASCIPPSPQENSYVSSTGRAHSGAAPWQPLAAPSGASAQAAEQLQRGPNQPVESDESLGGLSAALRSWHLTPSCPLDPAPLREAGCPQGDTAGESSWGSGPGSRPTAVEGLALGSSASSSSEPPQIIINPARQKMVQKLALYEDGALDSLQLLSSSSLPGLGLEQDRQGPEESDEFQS
CDK5/p25, sequence (Q00535 whole entry): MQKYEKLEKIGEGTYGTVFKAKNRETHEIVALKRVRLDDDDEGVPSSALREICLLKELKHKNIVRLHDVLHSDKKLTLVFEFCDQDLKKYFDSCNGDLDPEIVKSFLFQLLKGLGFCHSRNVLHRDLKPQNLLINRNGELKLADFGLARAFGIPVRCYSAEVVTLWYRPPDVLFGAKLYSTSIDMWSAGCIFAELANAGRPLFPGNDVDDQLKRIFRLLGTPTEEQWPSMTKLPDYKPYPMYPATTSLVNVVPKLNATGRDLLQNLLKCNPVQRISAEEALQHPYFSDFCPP
CDK5/p25, sequence (Q15078 99-307 partner): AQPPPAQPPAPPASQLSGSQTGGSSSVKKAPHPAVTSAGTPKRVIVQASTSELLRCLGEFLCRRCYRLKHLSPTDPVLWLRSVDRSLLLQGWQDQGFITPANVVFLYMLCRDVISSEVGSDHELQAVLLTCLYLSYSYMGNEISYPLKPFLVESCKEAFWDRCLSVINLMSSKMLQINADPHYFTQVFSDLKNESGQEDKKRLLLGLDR

IC50 (Jurkat): < 100 nM | IC50 (CDK5/p25): 100 to 1000 nM | IC50 (T47D): > 5000 nM | IC50 (IRAK1): < 100 nM | IC50 (SK-ES): < 500 nM | IC50 ([3]; read-out: Cellular IC50 for RNAP II CTD Ser-2 phosphorylation): ~20 nM | IC50 ([3]; read-out: Cellular IC50 for RNAP II CTD Ser-7 phosphorylation): ~4 nM | IC50 (RS4-11): < 500 nM | IC50 (MDA-MB231): < 500 nM | IC50 (THP-1): < 500 nM
SMILES: CN(C)C/C=C/C(=O)Nc1ccc(C(=O)Nc2cccc(Nc3ncc(Cl)c(-c4c[nH]c5ccccc45)n3)c2)cc1 [Formula I-23]
Reduction of BCL-XL protein levels (BCL-XL): not reduced even at higher concentrations | Concentration sufficient to elicit a reduction in MCL-1 protein levels (MCL-1 protein): ≤ 100 nM | IC50 (RD-ES): < 500 nM | IC50 (Hs863T): 500 to 5000 nM | Effect of pre-incubation with recombinant CAK complex prior to addition of ATP [1]: dramatic increase in CDK7 inhibitory activity | EC50 [2]: < 200 nM | Time to complete inhibition of target (inactivation of CDK7, RNAP II CTD phosphorylation) ([3]; treated 0 to 4 hours): 3 to 4 h | Recovery of RNAP II CTD phosphorylation after inhibitor washout ([3]; washout following a 4-hour administration): did not restore normal CTD phosphorylation levels | Inhibition of proliferation of Jurkat and Loucy leukemia cell lines [4]: potently inhibits proliferation | IC50 (SAOS): < 500 nM
